Key:
Assay in all cases: IC50 cell viability (Alamar Blue, 96 h)
10326 = test system: 10326
Experimental: (§1)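 Cells in log-phase growth were seeded in 96-well plates and treated with drug for 96 h at 37°C using 8-point serial dilutions from 0.0025 to 10 µM. Viability was read by Alamar Blue fluorescence after 6 h and normalised to positive and vehicle (DMSO) controls. IC50 values were fitted in ActivityBase; the value given is the mean of two independent experiments.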

11060 = test system: 11060
Experimental: as §1

14169 = test system: 14169
Experimental: as §1

8645 = test system: 8645
Experimental: as §1

A549 = test system: A549
Experimental: as §1

CAKI-1 = test system: CAKI-1
Experimental: as §1

HCC2429 = test system: HCC2429
Experimental: as §1

HS-27 = test system: HS-27
Experimental: as §1

P896-CL = test system: P896-CL
Experimental: as §1

PER-403 = test system: PER-403
Experimental: as §1

PER-535 = test system: PER-535
Experimental: as §1

PER-536 = test system: PER-536
Experimental: as §1

PER-624 = test system: PER-624
Experimental: as §1

PER-704 = test system: PER-704
Experimental: as §1

PER-712 = test system: PER-712
Experimental: as §1

PER-891 = test system: PER-891
Experimental: as §1

RPMI2650 = test system: RPMI2650
Experimental: as §1

TC797 = test system: TC797
Experimental: as §1

TY82 = test system: TY82
Experimental: as §1

WI-38 = test system: WI-38
Experimental: as §1

SMILES | IC50 cell viability 10326 [nM] | IC50 cell viability 11060 [nM] | IC50 cell viability 14169 [nM] | IC50 cell viability 8645 [nM] | IC50 cell viability (A549) [nM] | IC50 cell viability (CAKI-1) [nM] | IC50 cell viability (HCC2429) [nM] | IC50 cell viability (HS-27) [nM] | IC50 cell viability (P896-CL) [nM] | IC50 cell viability (PER-403) [nM] | IC50 cell viability (PER-535) [nM] | IC50 cell viability (PER-536) [nM] | IC50 cell viability (PER-624) [nM] | IC50 cell viability (PER-704) [nM] | IC50 cell viability (PER-712) [nM] | IC50 cell viability (PER-891) [nM] | IC50 cell viability (RPMI2650) [nM] | IC50 cell viability (TC797) [nM] | IC50 cell viability (TY82) [nM] | IC50 cell viability (WI-38) [nM]
Cc1csc(-c2nnc(Nc3ccc(Oc4ncccc4-c4ccnc(N)n4)cc3)c3ccccc23)c1 [AMG-900] | 3.75 | 98.1 | 3.94 | > 10000 | 6.42 | > 10000 | 7.26 | > 10000 | 5020 | < 2.5 | 112 | > 10000 | > 10000 | > 10000 | > 10000 | > 10000 | > 10000 | > 10000 | > 10000 | 7360
COc1cc(Nc2ncc3c(n2)-c2ccc(Cl)cc2C(c2c(F)cccc2OC)=NC3)ccc1C(=O)O [Alisertib] | 149 | 168 | 67.8 | 327 | 249 | 8100 | 229 | 5390 | 2410 | 38.1 | 37.4 | 1580 | 873 | 4880 | 306 | > 10000 | > 10000 | > 10000 | > 10000 | 6140
CCN(CCCOc1ccc2c(Nc3cc(CC(=O)Nc4cccc(F)c4)[nH]n3)ncnc2c1)CCOP(=O)(O)O [Barasertib] | 11.7 | 37.6 | 7.07 | 986 | 203 | > 10000 | 20.9 | 1900 | 5010 | 19.4 | > 10000 | > 10000 | > 10000 | > 10000 | > 10000 | > 10000 | > 10000 | > 10000 | > 10000 | 6910
COc1cccc2c1C(=O)c1c(O)c3c(c(O)c1C2=O)C[C@@](O)(C(C)=O)C[C@@H]3O[C@H]1C[C@H](N)[C@H](O)[C@H](C)O1 [Daunorubicin] | 42.1 | 29.5 | 9.69 | 12.2 | 13.1 | 1030 | 51.1 | 90.1 | 201 | 14.9 | 218 | 339 | 22 | 110 | 384 | 475 | 285 | 153 | 227 | 87.8
C[C@H]1O[C@@H](O[C@H]2[C@@H](O)C[C@H](O[C@H]3[C@@H](O)C[C@H](O[C@H]4CC[C@@]5(C)[C@H](CC[C@@H]6[C@@H]5C[C@@H](O)[C@]5(C)[C@@H](C7=CC(=O)OC7)CC[C@]65O)C4)O[C@@H]3C)O[C@@H]2C)C[C@H](O)[C@@H]1O [Digoxin] | 41.5 | 86.2 | 52 | 82.5 | 16.5 | 323 | 96.9 | 58.9 | 158 | 57.7 | 218 | 598 | 99.7 | 200 | 299 | 103 | 97.6 | 226 | 83.7 | 34
CC(=O)O[C@@]12CO[C@@H]1C[C@H](O)[C@@]1(C)C(=O)[C@H](O)C3=C(C)[C@@H](OC(=O)[C@H](O)[C@@H](NC(=O)OC(C)(C)C)c4ccccc4)C[C@@](O)([C@@H](OC(=O)c4ccccc4)[C@H]21)C3(C)C [Docetaxel] | < 2.5 | < 2.5 | < 2.5 | < 2.5 | < 2.5 | 5000 | < 2.5 | < 2.5 | 3.08 | < 2.5 | 6.25 | 16.4 | < 2.5 | 4.11 | 3.2 | > 10000 | > 10000 | 3.88 | 9.64 | 2.82
C/C(=C\c1csc(C)n1)[C@@H]1C[C@@H]2O[C@]2(C)CCC[C@H](C)[C@H](O)[C@@H](C)C(=O)C(C)(C)[C@@H](O)CC(=O)O1 [Epothilone B] | < 2.5 | < 2.5 | < 2.5 | < 2.5 | < 2.5 | 16.2 | < 2.5 | < 2.5 | 3.22 | < 2.5 | 3.27 | 7.59 | < 2.5 | 3.8 | < 2.5 | 5010 | > 10000 | 3.41 | 9.79 | < 2.5
COc1cc2ncnc(Nc3ccc(F)c(Cl)c3)c2cc1OCCCN1CCOCC1 [Gefitinib] | 5890 | 5370 | 6050 | – | 2740 | > 10000 | > 10000 | 7850 | 1450 | > 10000 | > 10000 | > 10000 | 2210 | > 10000 | > 10000 | 6540 | > 10000 | > 10000 | > 10000 | 5190
